“And” between values parts separate entries of the source, which are not always exact repeats. Identical values can stand only once.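 The compound was tested at five concentrations on cells cultured in 96-well plates, with a 48-hour exposure period. GI50 is the concentration that inhibits growth by half. The concentration for full growth arrest is given as TGI.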
What was measured:
Assay in all cases: growth of human tumour cells (NCI), 48 h
[1] = test system: COLO 205 colon
[2] = test system: CAKI-1 renal
[3] = test system: HCT-15 colon
[4] = test system: NCI-H460 lung
[5] = test system: SK-MEL-5 melanoma
[6] = test system: NCI/ADR-RES ovarian
[7] = test system: IGROV1 ovarian
[8] = test system: SW-620 colon
[9] = test system: SNB-75 CNS
[10] = test system: EKVX NSCLC
[11] = test system: KM12 colon
[12] = test system: OVCAR-8 ovarian
[13] = test system: HCC-2998 colon
[14] = test system: UACC-257 melanoma
[15] = test system: K-562 leukemia
[16] = test system: A498 renal
[17] = test system: UO-31 renal
[18] = test system: HOP-62 NSCLC
[19] = test system: HCT-116 colon
[20] = test system: 786-0 renal
[21] = test system: PC-3 prostate
[22] = test system: MALME-3M melanoma
[23] = test system: HOP-92 NSCLC
[24] = test system: SK-MEL-28 melanoma
[25] = test system: RPMI-8226 leukemia
[26] = test system: OVCAR-5 ovarian
[27] = test system: BT-549 breast
[28] = test system: A549 NSCLC
[29] = test system: OVCAR-4 ovarian
[30] = test system: SNB-19 CNS
[31] = test system: HT29 colon
[32] = test system: TK-10 renal
[33] = test system: UACC-62 melanoma
[34] = test system: OVCAR-3 ovarian
[35] = test system: MOLT-4 leukemia
[36] = test system: NCI-H23 lung
[37] = test system: M14 melanoma
[38] = test system: T-47D breast
[39] = test system: SK-MEL-2 melanoma
[40] = test system: U251 CNS
[41] = test system: MDA-N
[42] = test system: MDA-MB-231 breast
[43] = test system: MCF7 breast
[44] = test system: DU-145 prostate
[45] = test system: SK-OV-3 ovarian
[46] = test system: SF-295 CNS
[47] = test system: SF-268 CNS
[48] = test system: MDA-MB-435
[49] = test system: RXF 393 renal
[50] = test system: HS 578T breast
[51] = test system: NCI-H522 lung
[52] = test system: ACHN renal
[53] = test system: SN12C renal
[54] = test system: CCRF-CEM leukemia
[55] = test system: NCI-H226 lung
[56] = test system: SR leukemia
[57] = test system: LOX IMVI melanoma
[58] = test system: SF-539 CNS
[59] = test system: HL-60(TB) leukemia

C/C(N)=C/C(=O)c1[nH]c(C(=O)O)cc1C1CCN(Cc2ccccc2)C1=O (stereo not drawn)
TGI [1]: 65.1 µM
TGI [2]: > 100 µM
TGI [3]: > 100 µM
TGI [4]: > 100 µM
TGI [5]: 33.8 µM
TGI [6]: 51.6 µM
TGI [7]: 94.1 µM
TGI [8]: > 100 µM
TGI [9]: 88.4 µM
TGI [10]: > 100 µM
TGI [11]: > 100 µM
TGI [12]: 50.8 µM
TGI [13]: > 100 µM
TGI [14]: 78.5 µM
TGI [15]: 59 µM
TGI [16]: > 100 µM
TGI [17]: 75.2 µM
TGI [18]: 42.8 µM
TGI [19]: 63.8 µM
TGI [20]: 85 µM
TGI [21]: > 100 µM
TGI [22]: 50.2 µM
TGI [23]: 55 µM
TGI [24]: 72.5 µM
TGI [25]: 44.7 µM
TGI [26]: > 100 µM
TGI [27]: 74.6 µM
TGI [28]: > 100 µM
TGI [29]: > 100 µM
TGI [30]: > 100 µM
TGI [31]: > 100 µM
TGI [32]: > 100 µM
TGI [33]: 55.6 µM
TGI [34]: 55.6 µM
TGI [35]: 57.9 µM
TGI [36]: 47.9 µM
TGI [37]: 39 µM
TGI [38]: 74.9 µM
TGI [39]: 77.6 µM
TGI [40]: > 100 µM
TGI [41]: 69.7 µM
TGI [42]: > 100 µM
TGI [43]: 95.8 µM
TGI [44]: 84.3 µM
TGI [45]: 71.3 µM
TGI [46]: 49.6 µM
TGI [47]: 60.8 µM
TGI [48]: > 100 µM
TGI [49]: 45.2 µM
TGI [50]: > 100 µM
TGI [51]: 49.2 µM
TGI [52]: > 100 µM

CC1(CO)COS(=O)OC1 (stereo not drawn)
TGI [1]: > 100 µM
TGI [3]: > 100 µM
TGI [4]: > 100 µM
TGI [5]: > 100 µM
TGI [6]: > 100 µM
TGI [8]: > 100 µM
TGI [9]: > 100 µM
TGI [11]: > 100 µM
TGI [12]: > 100 µM
TGI [13]: > 100 µM
TGI [14]: > 100 µM
TGI [16]: > 100 µM
TGI [17]: > 100 µM
TGI [19]: > 100 µM
TGI [53]: > 100 µM
TGI [21]: > 100 µM
TGI [23]: > 100 µM
TGI [24]: > 100 µM
TGI [28]: > 100 µM
TGI [29]: > 100 µM
TGI [30]: > 100 µM
TGI [31]: > 100 µM
TGI [54]: > 100 µM
TGI [32]: > 100 µM
TGI [55]: > 100 µM
TGI [34]: > 100 µM
TGI [35]: > 100 µM
TGI [36]: > 100 µM
TGI [56]: > 100 µM
TGI [57]: > 100 µM
TGI [38]: > 100 µM
TGI [40]: > 100 µM
TGI [41]: > 100 µM
TGI [42]: > 100 µM
TGI [43]: > 100 µM
TGI [44]: > 100 µM
TGI [45]: > 100 µM
TGI [46]: > 100 µM
TGI [47]: > 100 µM
TGI [48]: > 100 µM
TGI [49]: > 100 µM
TGI [50]: > 100 µM
TGI [51]: > 100 µM
TGI [52]: > 100 µM

CC(C)(C)c1cc(NC(=O)Nc2ccc(-c3cn4c(n3)sc3cc(OCCN5CCOCC5)ccc34)cc2)no1
GI50 [1]: 7.75 µM and 1.21 µM and 1.76 µM
TGI [1]: > 45.7 µM and 8.31 µM and 8.55 µM
GI50 [2]: 10.9 µM and 2.6 µM and 6.93 µM
TGI [2]: 31.9 µM and 15.3 µM and > 10 µM
TGI [3]: > 91.9 µM and 14.8 µM and > 10 µM
GI50 [4]: 3.72 µM and 0.657 µM and 4.56 µM
TGI [4]: 16.1 µM and 10.4 µM and > 10 µM
GI50 [5]: 3.81 µM and 0.985 µM and 1.97 µM
TGI [5]: 18.2 µM and 3.31 µM and > 10 µM
GI50 [6]: 2.81 µM and 4.61 µM and 7.95 µM
TGI [6]: 24.7 µM and 19.2 µM and > 10 µM
GI50 [7]: 9.38 µM and 2.33 µM and > 10 µM
TGI [7]: 25.7 µM and 15.7 µM and > 10 µM
GI50 [8]: 11.4 µM and 2.86 µM and > 10 µM
TGI [8]: 27.2 µM and 17.6 µM and > 10 µM
GI50 [9]: 1.41 µM and 2.38 µM and 1.94 µM
TGI [9]: 6.52 µM and 19.1 µM and > 10 µM
GI50 [10]: 13 µM and 4.34 µM and > 10 µM
TGI [10]: 34.9 µM and 21.6 µM and > 10 µM
GI50 [11]: 0.532 µM and 0.496 µM and 0.438 µM
TGI [11]: 27.3 µM and 14.6 µM and > 10 µM
GI50 [12]: 1.14 µM and 0.544 µM and 1.51 µM
TGI [12]: 12.3 µM and 11.8 µM and > 10 µM
GI50 [13]: 14.1 µM and 11.7 µM and 7.03 µM
TGI [13]: 61.5 µM and 52.3 µM and > 10 µM
GI50 [14]: 9.01 µM and 3.43 µM and > 10 µM
TGI [14]: 23.5 µM and 16 µM and > 10 µM
GI50 [58]: 0.698 µM and 0.303 µM and 0.623 µM
TGI [58]: 15.4 µM and 1.65 µM and > 10 µM
TGI [15]: 11.9 µM and > 10 µM
GI50 [16]: 13.9 µM and 2.13 µM and > 10 µM
TGI [16]: 28.4 µM and 11 µM and > 10 µM
GI50 [17]: 3.62 µM and 0.45 µM and 3.93 µM
TGI [17]: 18.3 µM and 4.57 µM and > 10 µM
GI50 [18]: 1.88 µM and 1.19 µM and 2.29 µM
TGI [18]: 6.57 µM and 10 µM and > 10 µM
GI50 [19]: 4.23 µM and 0.576 µM and 5.19 µM
TGI [19]: 19 µM and 11.1 µM and > 10 µM
TGI [59]: > 100 µM and 24.8 µM and > 10 µM
GI50 [20]: 2.85 µM and 0.616 µM and 4.06 µM
TGI [20]: 15.8 µM and 3.29 µM and > 10 µM
TGI [53]: 24.9 µM and 13.2 µM and > 10 µM
GI50 [21]: 4.63 µM and 0.771 µM and 5.06 µM
TGI [21]: 19.1 µM and 14.2 µM and > 10 µM
GI50 [22]: 2.62 µM and 1.59 µM and 6.17 µM
TGI [22]: 14.7 µM and 13.3 µM and > 10 µM
GI50 [23]: 3.25 µM and 0.398 µM and 1.59 µM
TGI [23]: 14.8 µM and 5.01 µM and > 10 µM
GI50 [24]: 4.23 µM and 2.04 µM and > 10 µM
TGI [24]: 17.5 µM and 12 µM and > 10 µM
GI50 [25]: 0.363 µM and 0.16 µM and 0.34 µM
GI50 [26]: 21.7 µM and 9.53 µM and > 10 µM
TGI [26]: 86.9 µM and 22.7 µM and > 10 µM
GI50 [27]: 3.52 µM and 0.819 µM and 7.47 µM
TGI [27]: 20.3 µM and 5.16 µM and > 10 µM
GI50 [28]: 3.93 µM and 1.48 µM and 6.89 µM
TGI [28]: 19.5 µM and 13.8 µM and > 10 µM
GI50 [29]: 4.61 µM and 1.38 µM and 3.38 µM
TGI [29]: 15.8 µM and 5.96 µM and > 10 µM
GI50 [30]: 3.46 µM and 1.71 µM and 4.26 µM
TGI [30]: 20.3 µM and 17.1 µM and > 10 µM
GI50 [31]: 5.61 µM and 0.633 µM and 4.28 µM
TGI [31]: 27 µM and 11.4 µM and > 10 µM
GI50 [54]: 0.18 µM and 1.49 µM
TGI [54]: 18.6 µM and > 10 µM
GI50 [32]: 11.7 µM and 4.12 µM and > 10 µM
TGI [32]: 24.1 µM and 17.3 µM and > 10 µM
GI50 [33]: 1.34 µM and 1.4 µM
TGI [33]: 15.2 µM and 9.53 µM
GI50 [55]: 3.38 µM and 0.921 µM and 4.29 µM
TGI [55]: 18.6 µM and 5.24 µM and > 10 µM
GI50 [34]: 6.61 µM and 1.54 µM and 6.76 µM
TGI [34]: 19.4 µM and 8.38 µM and > 10 µM
TGI [35]: > 100 µM and 23.6 µM and > 10 µM
TGI [36]: 26.8 µM and 12.8 µM and > 10 µM
TGI [56]: > 47.9 µM and 11.2 µM and > 10 µM
GI50 [57]: 5.86 µM and 0.928 µM and 5.07 µM
TGI [57]: 30.1 µM and 8.21 µM and > 10 µM
GI50 [37]: 8.49 µM and 1.28 µM and 6.56 µM
TGI [37]: 26.8 µM and 16 µM and > 10 µM
GI50 [38]: 0.0864 µM and 0.107 µM and 0.223 µM
GI50 [39]: 6.73 µM and 2.78 µM and > 10 µM
TGI [39]: 20.3 µM and 16.2 µM and > 10 µM
GI50 [40]: 0.941 µM and 0.511 µM and 2.72 µM
TGI [40]: 12.9 µM and 5.25 µM and > 10 µM
GI50 [42]: 6.34 µM and 2.36 µM and 7.92 µM
TGI [42]: 21 µM and 16.3 µM and > 10 µM
GI50 [43]: 2.04 µM and 0.357 µM and 1.41 µM
TGI [43]: 23.3 µM and 13.3 µM and > 10 µM
GI50 [44]: 10.7 µM and 2.28 µM and 9.69 µM
TGI [44]: 22.5 µM and 13.3 µM and > 10 µM
GI50 [45]: 7.33 µM and 5.07 µM and > 10 µM
TGI [45]: 22.4 µM and 19.2 µM and > 10 µM
GI50 [46]: 1.01 µM and 0.404 µM and 1.42 µM
TGI [46]: 18.1 µM and 2.55 µM and > 10 µM
GI50 [47]: 3.17 µM and 2.19 µM and 5.09 µM
TGI [47]: 14.4 µM and 14.8 µM and > 10 µM
GI50 [48]: 6.85 µM and 4.32 µM and 7.3 µM
TGI [48]: 27.7 µM and 21.2 µM and > 10 µM
GI50 [49]: 0.8 µM and 0.489 µM and 0.881 µM
TGI [49]: 6.26 µM and 3.49 µM and > 10 µM
GI50 [50]: 1.35 µM and 0.328 µM and 1.75 µM
TGI [50]: 25.3 µM and 2.92 µM and > 10 µM
GI50 [51]: 0.9 µM and 0.937 µM and 3.32 µM
TGI [51]: 15.5 µM and 13.5 µM and > 10 µM
GI50 [52]: 3.48 µM and 1.22 µM and 8.06 µM
TGI [52]: 18.1 µM and 13.2 µM and > 10 µM

Source: PubChem BioAssay (NCI)
